Measurements from the NIST ThermoML archive (doi:10.1021/je050343i).
Numbers after ± are expanded uncertainties.

Assay: activity coefficient (dimensionless); of the first substance listed, at infinite dilution; xn = mol fraction of the nth substance listed
Details: Liquid, Chromatography, x1 = 0

SMILES	activity coefficient (249.95 K)	activity coefficient (269.95 K)	activity coefficient (289.9 K)	activity coefficient (309.99 K)	activity coefficient (330 K)	activity coefficient (250 K)	activity coefficient (269.96 K)	activity coefficient (289.99 K)	activity coefficient (249.92 K)	activity coefficient (270.04 K)	activity coefficient (249.98 K)	activity coefficient (249.94 K)	activity coefficient (250.01 K)
C=CC=C [1,3-butadiene] + C=C(C)CCO				2.56 ± 0.17	2.45 ± 0.17			2.65 ± 0.18	2.76 ± 0.19	2.69 ± 0.18			
C=CC=C [1,3-butadiene] + C=CC(C)(C)O		2.36 ± 0.16		2.05 ± 0.14	1.88 ± 0.13			2.22 ± 0.15			2.43 ± 0.17		
C=CCC [1-butene] + C=CC(C)(C)O		2.65 ± 0.18		2.37 ± 0.16	2.2 ± 0.15			2.52 ± 0.17			2.74 ± 0.19		
CC(C)C [2-methylpropane] + C=C(C)CCO				4.54 ± 0.31	4.29 ± 0.29			4.73 ± 0.32	5.27 ± 0.36	4.98 ± 0.34			
C=C(C)C [2-methylpropene] + C=C(C)CCO				3.21 ± 0.22	3.04 ± 0.21			3.32 ± 0.23	3.49 ± 0.24	3.41 ± 0.23			
C=C(C)C [2-methylpropene] + C=CC(C)(C)O		2.61 ± 0.18		2.31 ± 0.16	2.15 ± 0.15			2.47 ± 0.17			2.72 ± 0.19		
C/C=C/C [(E)-2-butene] + C=CC(C)(C)O		2.62 ± 0.18		2.35 ± 0.16	2.2 ± 0.15			2.51 ± 0.17			2.73 ± 0.19		
C/C=C\C [(Z)-2-butene] + C=C(C)CCO	3.26 ± 0.22	3.2 ± 0.22	3.08 ± 0.21	2.9 ± 0.2	2.77 ± 0.19								
C/C=C\C [(Z)-2-butene] + C=CC(C)(C)O				2.23 ± 0.15	2.05 ± 0.14	2.55 ± 0.17	2.48 ± 0.17	2.36 ± 0.16					
CCCl [chloroethane] + C=CC(C)(C)O				1.69 ± 0.11	1.56 ± 0.1		2.16 ± 0.15	1.96 ± 0.13					2.28 ± 0.16
CCC [propane] + C=C(C)CCO				3.86 ± 0.26	3.7 ± 0.25			4.1 ± 0.28	4.36 ± 0.3	4.19 ± 0.29			
C=CC [propene] + C=CC(C)(C)O		2.38 ± 0.16		2.17 ± 0.15	2.05 ± 0.14			2.3 ± 0.16			2.46 ± 0.17		

The next lines start with the values.

activity coefficient (249.95 K)	activity coefficient (269.95 K)	activity coefficient (289.9 K)	activity coefficient (309.99 K)	activity coefficient (330 K)	activity coefficient (250 K)	activity coefficient (269.96 K)	activity coefficient (289.99 K)	activity coefficient (249.92 K)	activity coefficient (270.04 K)	activity coefficient (249.98 K)	activity coefficient (249.94 K)	activity coefficient (250.01 K)	SMILES
4.94 ± 0.34	4.53 ± 0.31	4.12 ± 0.28	3.74 ± 0.25	3.5 ± 0.24									CC(F)F [1,1-difluoroethane] + C=C(C)CCO
			2.89 ± 0.2	2.47 ± 0.17	4.68 ± 0.32	3.99 ± 0.27	3.39 ± 0.23						CC(F)F [1,1-difluoroethane] + C=CC(C)(C)O
			3.28 ± 0.22	3.13 ± 0.21			3.4 ± 0.23	3.57 ± 0.24	3.47 ± 0.24				C=CCC [1-butene] + C=C(C)CCO
	3.42 ± 0.23		3.06 ± 0.21	2.83 ± 0.19			3.27 ± 0.22			3.56 ± 0.24			CC(C)C [2-methylpropane] + C=CC(C)(C)O
			3.27 ± 0.22	3.12 ± 0.21			3.35 ± 0.23	3.55 ± 0.24	3.42 ± 0.23				C/C=C/C [(E)-2-butene] + C=C(C)CCO
			4.18 ± 0.28	3.99 ± 0.27			4.41 ± 0.3	4.89 ± 0.33	4.61 ± 0.31				CCCC [butane] + C=C(C)CCO
	3.22 ± 0.22		2.87 ± 0.2	2.65 ± 0.18			3.08 ± 0.21			3.3 ± 0.22			CCCC [butane] + C=CC(C)(C)O
	2.35 ± 0.16	2.32 ± 0.16	2.23 ± 0.15	1.99 ± 0.14							2.49 ± 0.17		CCCl [chloroethane] + C=C(C)CCO
1.28 ± 0.08	1.23 ± 0.08	1.2 ± 0.08	1.17 ± 0.07	1.15 ± 0.07									COC [dimethyl ether] + C=C(C)CCO
			0.72 ± 0.05	0.74 ± 0.05		0.67 ± 0.05	0.7 ± 0.05					0.62 ± 0.04	COC [dimethyl ether] + C=CC(C)(C)O
	2.97 ± 0.2		2.7 ± 0.18	2.54 ± 0.17			2.86 ± 0.19			3.08 ± 0.21			CCC [propane] + C=CC(C)(C)O
			2.92 ± 0.2	2.8 ± 0.19			2.99 ± 0.2	3.07 ± 0.21	3.04 ± 0.21				C=CC [propene] + C=C(C)CCO
